Like-named read-outs stand apart in the source and are kept apart here.
Tests used:
[1] = target: T1, FXR (Homo sapiens, UniProt Q96RI1); experiment: PathHunter NHR protein interaction assay, agonist mode (FXR)
T1 sequence (Q96RI1 1-486): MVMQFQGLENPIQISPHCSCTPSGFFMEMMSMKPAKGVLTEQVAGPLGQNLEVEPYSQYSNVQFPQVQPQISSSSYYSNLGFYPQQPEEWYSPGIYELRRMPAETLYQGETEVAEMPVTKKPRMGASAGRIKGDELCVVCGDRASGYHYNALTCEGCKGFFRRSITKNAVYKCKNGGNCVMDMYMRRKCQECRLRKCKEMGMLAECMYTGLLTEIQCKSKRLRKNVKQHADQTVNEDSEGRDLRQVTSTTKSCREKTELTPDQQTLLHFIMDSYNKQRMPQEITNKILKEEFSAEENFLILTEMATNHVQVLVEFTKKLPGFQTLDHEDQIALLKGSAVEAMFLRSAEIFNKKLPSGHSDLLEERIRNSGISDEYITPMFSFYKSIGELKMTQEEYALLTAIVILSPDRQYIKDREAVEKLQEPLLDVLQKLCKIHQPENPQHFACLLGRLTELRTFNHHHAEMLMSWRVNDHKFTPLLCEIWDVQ
Method: PathHunter® CHO-K1 FXR protein interaction cells were expanded from freezer stocks according to standard procedures. Cells were seeded in a total volume of 20 μL into white walled, 384-well microplates and incubated at 37° C. for the appropriate time prior to testing. Assay media contained charcoal-dextran filtered serum to reduce the level of hormones present. For agonist determination, cells were incubated with sample to induce response. […] For antagonist determination, cells were pre-incubated with antagonist followed by agonist challenge at the EC80 concentration. […] Microplates were read following signal generation with a PerkinElmer Envision™ instrument for chemiluminescent signal detection. Compound activity was analyzed using CBIS data analysis suite (ChemInnovation, CA). For agonist mode assays, percentage activity was calculated using the following formula: % Activity=100%×(mean RLU of test sample−mean RLU of vehicle control)/(mean MAX control ligand−mean RLU of vehicle control).
In this assay, two weakly complementing fragments of the β-galactosidase are expressed within stably transfected cells. The complementing fragments of the β-galactosidase are translationally fused to the C-terminus of a full-length FXR and to the steroid receptor coactivator peptide (SRCP), respectively. When bound by ligand, the FXR will migrate to the nucleus and recruit the SRCP domain, whereby complementation occurs, generating a unit of active β-galactosidase and production of chemiluminescent signal. Thus, measurement of chemiluminescent signal directly reflects FXR-coactivator interaction.

[2] = Pharmacokinetic studies of Example 11 in rats; type: in vivo, Sprague-Dawley rats
Method: To investigate whether Example 11 is indeed an intestine-selective/specific FXR agonist, its pharmacokinetic profile was evaluated. Male Sprague-Dawley rats (7-week old, 240-260 g) were purchased from Orient Bio. Inc. (Seongnam, Korea). Rats were kept in the cage maintained under a controlled environment (temperature of 23±3° C., relative humidity of 50±5%, and 12 h dark-light cycle) for at least 3 days. Rats were fasted overnight before dose administration. The Example 11 was dissolved in a mixture of DMSO, Tween 80, and 0.9% saline solution (v:v:v, 1:1:8) at a concentration of 2.5 mg/mL for intravenous injection (IV). Also, Example 11 was dissolved in corn oil for oral administration (PO). Rats were divided into two groups; IV group and PO group including at least 6 animals per group. After anesthetized with isoflurane, rats were given the dose of 5 mg/kg via IV injection or 80 mg/kg via PO administration by oral gavage into the stomach. Blood samples (approximately 0.25 mL) were obtained by subclavian vein puncture at 0, 0.033, 0.083, 0.167, 0.333, 0.667, 1, 2, 3, 5, 7, 10, and 24 h after IV injection. After PO administration, blood samples were obtained at 0, 0.083, 0.167, 0.333, 0.667, 1, 2, 3, 5, 7, 10, and 24 h post-dose. Subsequently, blood samples were collected in 1.5-mL Eppendorf tube on an ice. The tubes were centrifuged at 13500 rpm for 15 min at 4° C. to separate the plasma fraction. Then, the plasma samples were stored at […] until HPLC analysis. To prepare the samples for HPLC analysis, 5 μL of Example 11 or Example 24 and 5 μL of internal standard, Example 4 were added to 45 μL of plasma. For extraction, 45 μL of MeCN was added to the mixture. Then, the mixture was vortexed for 2 min and centrifuged at 13500 rpm for 15 min at room temperature. The 60 μL of clear supernatant was transferred to an insert. Then, the HPLC auto-injector was programmed to inject 40 μL of the sample to the HPLC system for analysis. The linearity of the calibration curve was obtained by plotting the peak area ratio (area of Example 11 or area of Example 24/area of Example 4). Pharmacokinetic parameters were calculated by non-compartmental analysis of the plasma concentration-time profiles using Winnonlin® Professional version 8.01 software (Pharsight Corporation, Mountain View, CA). Oral bioavailability (F) was calculated by the ratio of the dose-corrected area under the plasma drug concentration-time curve (AUClast) between oral administration and intravenous injection.

[3] = read-out: % max. rel. efficacy, Table 2, relative to GW4064, top conc. 3.3 μM, one experiment in duplicate
[4] = Table 4, 5 concentrations, 3-fold dilution from 3.3 μM (GW4064: 10 conc. from 10 μM), one experiment in duplicate, NA = inactive at 3.3 μM
[5] = read-out: % max. rel. efficacy, Table 4, relative to GW4064, top conc. 3.3 μM, one experiment in duplicate
[6] = rat, intravenous Example 11, 5 mg/kg

`COCc1cc(CN(C(=O)C2CCCCC2)c2cccc(/C=C/C(=O)OC)c2)ccc1-c1ccc(N(C)C)cc1` [Example 2, (E)-3-(3-(cyclohexanecarbonyl-(4′-dimethylamino-2-methoxymethylbiphenyl-4-ylmethyl)amino)phenyl)acrylic acid methyl ester] gave an EC50 [1] greater than 10000 nM and an Emax [1, 3] of 5%.
For `COC(=O)/C=C/c1cccc(N(Cc2ccc(-c3ccc(N(C)C)cc3C#N)c(C#N)c2)C(=O)C2CCCCC2)c1` [Example 8, (E)-3-(3-(cyclohexanecarbonyl-(2,2′-dicyano-4′-dimethylaminobiphenyl-4-ylmethyl)-amino)phenyl)acrylic acid methyl ester], the EC50 [1, 4] was 1600 nM and the Emax [1, 5] was 10%.
For `COC(=O)/C=C/c1cc(F)cc(N(Cc2ccc(-c3ccc(N(C)C)cc3)c(C#N)c2)C(=O)C2CCCCC2)c1` [Example 11, (E)-3-(3-((2-cyano-4′-dimethylaminobiphenyl-4-ylmethyl)cyclohexanecarbonylamino)-5-fluorophenyl)acrylic Acid Methyl Ester], the EC50 [1, 4] was 900 nM, the “% max. rel. efficacy” value ([1]; Table 5, relative to GW4064, mean ± SEM of two or three independent experiments in duplicate) was 53 ± 3^c* % and the Emax [1, 5] was 56%. The Emax ([1]; read-out: % max. rel. efficacy, Table 5, relative to GW4064, mean ± SEM of two or three independent experiments in duplicate) was 53 ± 3%, the bioavailability ([2]; male, Sprague-Dawley, plasma, rat, oral 80 mg/kg vs intravenous 5 mg/kg, dose-corrected AUClast ratio, read-out: F (oral bioavailability)) was 4% and the AUC(0-t) ([2]; male, Sprague-Dawley, rat plasma, oral dose of Example 11, 80 mg/kg in corn oil) was 1500 ± 600 ng·h/mL. For the same compound, the “detected in plasma until (time after administration)” value [2, 6] was 20 min, the “metabolism after intravenous administration” value [2, 6] was “rapidly metabolized to the corresponding carboxylic acid, Example 24” and the “detected after (time after oral administration)” value ([2]; rat, oral Example 11, 80 mg/kg) was 5 h.
`CCOC(=O)/C=C/c1ccc(F)c(N(Cc2ccc(-c3ccc(N(C)C)cc3)c(C#N)c2)C(=O)C2CCCCC2)c1` [Example 21, (E)-3-(3-((2-cyano-4′-dimethylaminobiphenyl-4-ylmethyl)cyclohexanecarbonylamino)-4-fluorophenyl)acrylic acid ethyl ester] showed an EC50 [1, 4] of 1600 nM and an Emax [1, 5] of 9%.
With `CN(C)c1ccc(-c2ccc(CN(C(=O)C3CCCCC3)c3cccc(/C=C/C(=O)OC4CC4)c3)cc2C#N)cc1` [Example 23, (E)-3-(3-((2-cyano-4′-dimethylaminobiphenyl-4-ylmethyl)cyclohexanecarbonylamino)phenyl)acrylic Acid Cyclopropyl Ester] the EC50 [1, 4] was 900 nM and the Emax [1, 5] was 46%.
`CC(C)OC(=O)/C=C/c1cc(F)cc(N(Cc2ccc(-c3ccc(N(C)C)cc3)c(C#N)c2)C(=O)C2CCCCC2)c1` [Example 13, (E)-3-(3-((2-cyano-4′-dimethylaminobiphenyl-4-ylmethyl)cyclohexanecarbonylamino)-5-fluorophenyl)acrylic acid isopropyl ester] showed an EC50 [1, 4] of 800 nM and an Emax [1, 5] of 20%.
For `COC(=O)/C=C/c1cccc(N(Cc2ccc(-c3ccc(N(C)C)cc3)c(C#N)c2)C(=O)C2CCCCC2)c1F` [Example 17, (E)-3-(3-((2-cyano-4′-dimethylaminobiphenyl-4-ylmethyl)cyclohexanecarbonylamino)-2-fluorophenyl)acrylic acid methyl ester], the EC50 [1, 4] was 1300 nM and the Emax [1, 5] was 19%.
`COC(=O)/C=C/c1cccc(N(Cc2ccc(-c3ccc(N(C)C)cc3Cl)c(C#N)c2)C(=O)C2CCCCC2)c1` [Example 7, (E)-3-(3-((2′-chloro-2-cyano-4′-dimethylaminobiphenyl-4-ylmethyl)cyclohexane-carbonylamino)phenyl)acrylic acid methyl ester] gave an EC50 [1, 4] of 1200 nM and an Emax [1, 5] of 21%.
For `COC(=O)/C=C/c1cccc(N(Cc2ccc(-c3ccc(N(C)C)cc3F)c(C#N)c2)C(=O)C2CCCCC2)c1` [Example 6, (E)-3-(3-((2-cyano-4′-dimethylamino-2′-fluorobiphenyl-4-ylmethyl)cyclohexanecarbonylamino)phenyl)acrylic Acid Methyl Ester], the EC50 [1, 4] was 900 nM and the Emax [1, 5] was 42%.
Compound `CC(C)OC(=O)/C=C/c1cccc(N(Cc2ccc(-c3ccc(N(C)C)cc3)c(C#N)c2)C(=O)C2CCCCC2)c1F` [Example 19, (E)-3-(3-((2-cyano-4′-dimethylaminobiphenyl-4-ylmethyl)cyclohexanecarbonylamino)-2-fluorophenyl)acrylic acid isopropyl ester] has an Emax [1, 5] of 42%.
For `CCOC(=O)/C=C/c1cccc(N(Cc2ccc(-c3ccc(N(C)C)cc3)c(C#N)c2)C(=O)C2CCCCC2)c1` [Example 9, (E)-3-(3-((2-cyano-4′-dimethylaminobiphenyl-4-ylmethyl)cyclohexanecarbonylamino)phenyl)acrylic acid ethyl ester], the EC50 [1, 4] was 1200 nM and the Emax [1, 5] was 40%.
`COC(=O)/C=C/c1cc(N(Cc2ccc(-c3ccc(N(C)C)cc3)c(C#N)c2)C(=O)C2CCCCC2)ccc1F` [Example 14] showed an EC50 [1, 4] of 1500 nM and an Emax [1, 5] of 23%.
`COC(=O)/C=C/c1ccc(F)c(N(Cc2ccc(-c3ccc(N(C)C)cc3)c(C#N)c2)C(=O)C2CCCCC2)c1` [Example 20, (E)-3-(3-((2-cyano-4′-dimethylaminobiphenyl-4-ylmethyl)cyclohexanecarbonylamino)-4-fluorophenyl)acrylic acid methyl ester] gave an EC50 [1, 4] of 1500 nM and an Emax [1, 5] of 15%.
Work on `CCOC(=O)/C=C/c1cc(N(Cc2ccc(-c3ccc(N(C)C)cc3)c(C#N)c2)C(=O)C2CCCCC2)ccc1F` [Example 15] yielded an EC50 [1, 4] of 1300 nM and an Emax [1, 5] of 23%.
For `CC(C)OC(=O)/C=C/c1ccc(F)c(N(Cc2ccc(-c3ccc(N(C)C)cc3)c(C#N)c2)C(=O)C2CCCCC2)c1` [Example 22, (E)-3-(3-((2-cyano-4′-dimethylaminobiphenyl-4-ylmethyl)cyclohexanecarbonylamino)-4-fluorophenyl)acrylic acid isopropyl ester], the Emax [1, 5] was 3%.
Compound `COC(=O)/C=C/c1cccc(N(Cc2ccc(-c3ccc(N(C)C)cc3)c(CO)c2)C(=O)C2CCCCC2)c1` [Example 1, (E)-3-(3-(cyclohexanecarbonyl-(4′-dimethylamino-2-hydroxymethylbiphenyl-4-ylmethyl)amino)phenyl)acrylic acid methyl ester] has an Emax [1, 3] of 1%.
`CCOC(=O)/C=C/c1cc(F)cc(N(Cc2ccc(-c3ccc(N(C)C)cc3)c(C#N)c2)C(=O)C2CCCCC2)c1` [Example 12, (E)-3-(3-((2-cyano-4′-dimethylaminobiphenyl-4-ylmethyl)cyclohexanecarbonylamino)-5-fluorophenyl)acrylic acid ethyl ester] gave an EC50 [1, 4] of 1000 nM and an Emax [1, 5] of 47%.
In the case of `COC(=O)/C=C/c1cccc(N(Cc2ccc(-c3ccc(N(C)C)cc3)c(C3OCCO3)c2)C(=O)C2CCCCC2)c1` [Example 3, (E)-3-(3-(cyclohexanecarbonyl-(4′-dimethylamino-2-[1,3]dioxolan-2-ylbiphenyl-4-ylmethyl)amino)phenyl)acrylic acid methyl ester], the Emax [1, 3] is reported as 3%.
